Results: ChEMBL document CHEMBL1649553, “Characterization of ermA in macrolide-susceptible strains of methicillin-resistant Staphylococcus aureus” (2009)
In brackets after ≈: the same amount, converted by molar mass.

Test system: Staphylococcus aureus
Assay: Antibacterial activity against methicillin-resistant Staphylococcus aureus
Assay type: functional

SMILES	MIC
CC[C@H]1OC(=O)[C@H](C)[C@@H](O[C@H]2C[C@@](C)(OC)[C@@H](O)[C@H](C)O2)[C@H](C)[C@@H](O[C@@H]2O[C@H](C)C[C@H](N(C)C)[C@H]2O)[C@](C)(O)C[C@@H](C)C(=O)[C@H](C)[C@@H](O)[C@]1(C)O [ERYTHROMYCIN]	0.25 µg/mL (≈ 0.341 µM)
CCC[C@@H]1C[C@@H](C(=O)N[C@@H]([C@H]2O[C@H](SC)[C@H](O)[C@@H](O)[C@H]2O)[C@H](C)Cl)N(C)C1 [CLINDAMYCIN]	0.5 µg/mL (≈ 1.18 µM)
